In patent US4405743A, “Pyrazolylpyrimidine derivatives” (Hokko Chemical Industry Co., Ltd., priority 1981, dated 1983):
Read-outs that look alike come from different tables or passages of the source.

Assays:
[1] = test system: Cochliobolus miyabeanus; test: Effect of controlling rice brown spot, Experimental Example 3; type: in vivo, Cochliobolus miyabeanus on rice plant (variety: Asahi); details: sprayed liquid 500 ppm, 5 days after inoculation
[2] = test system: Sphaerotheca friliginea; test: Effect of controlling cucumber powdery mildew, Experimental Example 4; type: in vivo; details: sprayed liquid 200 ppm, 10 days after inoculation
Outline: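 First-leaf cucumber seedlings (Sagami Hanpaku) in pots were sprayed with test liquid at set concentrations, then spray-inoculated with spore suspension the next day. Lesion area (%) was scored 10 days post-inoculation and converted to a control value. Phytotoxicity was also rated.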

[3] = test system: Pyricularia oryzae; type: in vivo, Pyricularia oryzae on rice plant (variety: Asahi); details: rice blast, curative treatment; sprayed liquid 200 ppm; 5 days after spraying
[4] = test system: rice blast; details: Annual Report of the Takeda's Research Institute, Vol. 24, pages 250-258 (1965); cited from earlier work
[5] = test system: rice plant; details: blast curative test, 200 ppm
[6] = test system: cucumber plant; details: 200 ppm
[7] = Annual Report of the Takeda's Research Institute, Vol. 24, pages 250-258 (1965); cited from earlier work
[8] = test system: rice plant; details: 500 ppm
[9] = test system: Pyricularia oryzae; type: in vivo, Pyricularia oryzae on rice plant (variety: Asahi); details: rice blast, prevention; 200 ppm; 5 days after inoculation
[10] = test system: rice plant; details: blast prevention test, 200 ppm

Row | Structure (SMILES) | Control Value [1] | Control Value [2] | Control Value [3] | activity of controlling rice blast [4] | Degree of chemical injury [5] | Degree of chemical injury [6] | chemical injury [7] | Degree of chemical injury [8] | Control Value [9] | Degree of chemical injury [10]
1 | Cc1cc(O)nc(-n2nc(C)cc2C)n1 [Comparative Chemical 1, 2-(3,5-dimethyl-1-pyrazolyl)-4-methyl-6-hydroxypyrimidine, reference compound] | 75% | 53.2% | 70% | show an activity of controlling rice blast | 5 | 1 | violent chemical injury | 5 | 75% | 5
2 | Cc1cc(C)n(-c2nc(O)cc(-c3ccccc3)n2)n1 [Comparative Chemical 2, 2-(3,5-dimethyl-1-pyrazolyl)-4-phenyl-6-hydroxypyrimidine, reference compound] | 73% | 48.3% | 71% | show an activity of controlling rice blast | 5 | 1 | violent chemical injury | 5 | 76% | 5
3 | Cc1cc(SC#N)nc(-n2nc(C)cc2C)n1 [Comparative Chemical 3, 2-(3,5-dimethyl-1-pyrazolyl)-4-methyl-6-thiocyanopyrimidine] | – | – | – | – | – | – | violent chemical injury | – | – | –
